Results from the NIST ThermoML archive (doi:10.1021/acs.jced.8b00309).
± gives the expanded uncertainty stated by the source.

Conditions: Crystal

Molecule `Cc1ncc(COP(=O)(O)O)c(C=O)c1O.O` [pyridoxal 5-phosphate hydrate] has a mass density (293 K, 101.33 kPa, Pycnometric method) of 1536 ± 5 kg/m3 and a Normal melting temperature (DTA) of 148.56 ± 0.5 °C.
